According to ChEMBL document CHEMBL5725901, “[7,6]-fused bicyclic antidiabetic compounds” (2018):
pEC50: −log10 of the molar value.

Target: Free fatty acid receptor 1 (Homo sapiens, UniProt O14842)
Assay: FLIPR Assay: FLIPR (Fluorimetric Imaging Plate Reader, Molecular Devices) assays were performed to measure agonist-induced calcium mobilization of the stable clones. For the FLIPR assay, one day before assay, GPR40/CHO NFAT BLA cells were seeded into black-wall-clear-bottom 384-well plates (Costar) at 1.4×10e4 cells/20 μL medium/well. The cells were incubated with 20 μl/well of the assay buffer (HBSS, 0.1% BSA, 20 mM HEPES, 2.5 mM probenecid, pH 7.4) containing 8 μM fluo-4,AM, 0.08% pluronic acid at room temperature for 100 minutes. Fluorescence output was measured using FLIPR. Compounds were dissolved in DMSO and diluted to desired concentrations with assay buffer. 13.3 μL/well of compound solution was added.

Sequence of Free fatty acid receptor 1 (O14842 whole entry): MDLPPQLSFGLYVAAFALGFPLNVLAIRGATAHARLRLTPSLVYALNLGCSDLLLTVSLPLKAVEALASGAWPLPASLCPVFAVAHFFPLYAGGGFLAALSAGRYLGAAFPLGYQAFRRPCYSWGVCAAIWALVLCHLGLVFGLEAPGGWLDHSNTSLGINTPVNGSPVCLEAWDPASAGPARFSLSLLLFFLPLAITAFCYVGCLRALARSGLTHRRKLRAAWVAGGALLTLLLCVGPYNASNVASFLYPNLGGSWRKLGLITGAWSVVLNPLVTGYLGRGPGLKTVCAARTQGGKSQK

- pEC50: 5.48
SMILES: Cc1cccc(C)c1-c1cccc(C2CCCc3cc(CCC(=O)O)ccc3O2)c1 (stereo unspecified)
